Data set [1] deals with hRBC. The data set is described as follows: In vitro hemolytic activity on healthy erythrocytes. The format is cell-based. The conditions noted are these: cultures of hRBC and PiRBC, summary of Table 3. As for the experimental part: (§1) For positive and negative controls, 1% Triton X-100 and PBS were added, respectively. After this period, the plates were centrifuged and supernatants transferred to another plate. Supernatant absorbance at 450 nm was assessed in a multi-mode microplate reader (Triad, Dynex Technologies, Chantilly, VA, USA) and values were treated using the following equation (1):(1) % Hemolysis=Abs−Abs(negative control)/Abs(positive control)−Abs(negative control)

Data set [2] relates to P. falciparum W2. The settings on record: cited from earlier work.
Data set [3] deals with P. falciparum 3D7. The settings on record: cited from earlier work.
The test system of data set [4] is P. falciparum 3D7. The format is cell-based. The conditions noted are these: P. falciparum 3D7 (CQ-sensitive), 48 h; read-out: IC50 ± SD (n = 3). On the procedure: These second-generation conjugates (synthesis routes depicted in Scheme 2; Scheme 3) were evaluated in vitro, alongside the commercial reference drug, CQ (1), their parent building blocks, TP10 and Cq (4), and first-generation conjugate 5a, regarding their ability to inhibit growth of blood-stage parasites of the CQ-sensitive P. falciparum 3D7 strain (Table 3). The primaquine analogues of Cq conjugates 5a and 14, respectively, PQ-C4-TP10 (3a) and TP10-S-S-PQ (Figure 2, 14′), were also included for comparison; the synthesis of these conjugates, 3a and 14′, has been reported elsewhere. Of note, substantial hemolysis was detected upon erythrocyte exposure to some of the test conjugates, particularly at the higher concentrations tested. In view of this, emolysis assays were also conducted on cultures of both hRBC and PiRBC (Table 3).
P. falciparum 3D7 strain (chloroquine and mefloquine susceptible) was continuously cultured as previously described. Parasitemia was monitored daily by microscopic examination of Giemsa (MERCK, Sigma-Aldrich) stained thin blood smears.
Synchronized ring-stage P. falciparum (3% hematocrit, 1% parasitemia) were incubated in a microtiter plate for 48 h in the presence of two-fold serial dilutions of TP10 and derived conjugates 11–15, in the 10–10000 nM concentration range. Cultures incubated with three-fold serial dilutions of chloroquine bisphosphate, and also of its analogue 4, in the 0.1–8000 nM concentration range, were included for comparison. Culture without test compounds was also added to the microtiter plate, as negative control. After incubation, 100 μL of a solution of SYBR Green (Thermo Fisher; SG; 0.001% v/v in PBS) was added to each well and plates incubated for another 60 min under standard culture conditions. Plates were then centrifuged at 2500 rpm for 2 min, the supernatant was discarded, and cells were re-suspended in 100 μL of PBS. Fluorescence was collected in a multi-mode microplate reader (Triad, Dynex Technologies) with excitation at 485 nm and emission at 535 nm. Fluorescence values were normalized (to take into account the normal growth of the parasite) and then plotted against logC. IC50 were determined using GraphPad Prism 6.

The nature of data set [5]: In vitro hemolytic activity on healthy erythrocytes. The format is cell-based. The conditions noted are these: healthy erythrocytes (hRBC); 10 µM, 1 h, hRBC only; dash with footnote c = hemolysis not detected; read-out: % hemolysis at 10 µM ± SD (n = 3), hRBC. As for the experimental part:
as §1

Data set [6] is described as follows: In vitro hemolytic activity on Plasmodium-infected erythrocyte cultures. The class given is cell-based. The settings on record: cultures with 3% PiRBC, dash with footnote c = hemolysis not detected, read-out: % hemolysis at 10 µM ± SD (n = 3), PiRBC. On the procedure:
as §1

Data set [7] relates to P. falciparum W2. The format is cell-based. The settings on record: P. falciparum W2 (CQ-resistant), 48 h, n = 3. As for the experimental part:
All conjugates and their respective parent CPP (Table 1), were screened in vitro for their antiplasmodial activity, using the CQ-resistant P. falciparum W2 strain. The primaquine analogue to 5a, i.e., conjugate 3 where the CPP is TP10, PQ-C4-TP10 (3a), was also included in the study for comparison.
Synchronized ring-stage P. falciparum parasites (W2 strain) were incubated with test compounds for 48 h in Roswell Park Memorial Institute (RPMI) 1640 medium containing 10% human serum or 0.5% Albumax serum substitute. Parasites were then fixed with 1% formaldehyde in phosphate-buffered saline (PBS), pH 7.4, for […] at RT and labeled with YOYO-1 (1 nM; molecular probes) in 0.1% Triton X-100 in PBS. Parasitemias were determined by flow cytometry, from dot plots (forward scatter versus fluorescence). For 50% inhibitory concentration (IC50) determinations, dose-response studies were performed, with the values normalized to percent control activity, and IC50s were calculated using GraphPad Prism, with data fitted by nonlinear regression.

The source of these data is PMC6943437, “Coupling the Antimalarial Cell Penetrating Peptide TP10 to Classical Antimalarial Drugs Primaquine and Chloroquine Produces Strongly Hemolytic Conjugates” (Molecules, 2019).

One may read the IC50 as the midpoint of a concentration-inhibition curve.

Where “and” joins values, the source holds several entries; their conditions need not be identical. Equal entries are not always repeated. Where two headings read alike, the source gives them in different places.

`CCN(CC)CCCC(C)Nc1ccnc2cc(Cl)ccc12` (stereo not shown) [compound 1, chloroquine]: the “hemolytic activity (in words)” value in data set [1] is listed as “not hemolytic”. Besides, the figures for the IC50 in data set [2] and in data set [3] were 699 nM and 21 nM, respectively.
For `CC[C@H](C)[C@H](NC(=O)[C@H](CCCCN)NC(=O)[C@H](CCCCN)NC(=O)[C@H](C)NC(=O)[C@H](CC(C)C)NC(=O)[C@H](C)NC(=O)[C@H](C)NC(=O)[C@H](CC(C)C)NC(=O)[C@H](C)NC(=O)[C@H](CCCCN)NC(=O)[C@H](CC(C)C)NC(=O)[C@H](CC(N)=O)NC(=O)[C@@H](NC(=O)[C@H](CCCCN)NC(=O)CNC(=O)[C@H](CC(C)C)NC(=O)[C@H](CC(C)C)NC(=O)[C@H](Cc1ccc(O)cc1)NC(=O)CNC(=O)[C@H](C)NC(=O)[C@@H](N)CSSC[C@H](N)C(=O)NCCCCNc1ccnc2cc(Cl)ccc12)[C@@H](C)CC)C(=O)N[C@@H](CC(C)C)C(N)=O` [compound 12], the IC50 in data set [4] came out at 1000 ± 300 nM. Also, the hemolysis at 1 h, 10 µM stood at 8.5 ± 0.5% in data set [5] and 2 ± 0.3% in data set [6].
With `CC[C@H](C)[C@H](NC(=O)[C@H](CCCCN)NC(=O)[C@H](CCCCN)NC(=O)[C@H](C)NC(=O)[C@H](CC(C)C)NC(=O)[C@H](C)NC(=O)[C@H](C)NC(=O)[C@H](CC(C)C)NC(=O)[C@H](C)NC(=O)[C@H](CCCCN)NC(=O)[C@H](CC(C)C)NC(=O)[C@H](CC(N)=O)NC(=O)[C@@H](NC(=O)[C@H](CCCCN)NC(=O)CNC(=O)[C@H](CC(C)C)NC(=O)[C@H](CC(C)C)NC(=O)[C@H](Cc1ccc(O)cc1)NC(=O)CNC(=O)[C@H](C)NC(=O)CCC(=O)NCCCCNc1ccnc2cc(Cl)ccc12)[C@@H](C)CC)C(=O)N[C@@H](CC(C)C)C(N)=O` [5a], in data set [4], the IC50 is 800 ± 100 nM. The figures for the hemolysis at 1 h, 10 µM in data set [5] and in data set [6] were 23 ± 1% and 6.5 ± 0.4%, respectively.
Taken in the same sequence, the figures for `CC[C@H](C)[C@H](NC(=O)[C@H](CCCCN)NC(=O)[C@H](CCCCN)NC(=O)[C@H](C)NC(=O)[C@H](CC(C)C)NC(=O)[C@H](C)NC(=O)[C@H](C)NC(=O)[C@H](CC(C)C)NC(=O)[C@H](C)NC(=O)[C@H](CCCCN)NC(=O)[C@H](CC(C)C)NC(=O)[C@H](CC(N)=O)NC(=O)[C@@H](NC(=O)[C@H](CCCCN)NC(=O)CNC(=O)[C@H](CC(C)C)NC(=O)[C@H](CC(C)C)NC(=O)[C@H](Cc1ccc(O)cc1)NC(=O)CNC(=O)[C@H](C)NC(=O)CCCCCNC(=O)CCC(=O)NCCCCNc1ccnc2cc(Cl)ccc12)[C@@H](C)CC)C(=O)N[C@@H](CC(C)C)C(N)=O` [compound 10] were 800 ± 300 nM, 38 ± 2% and 19 ± 1%.
For the compound “N-(7-Methylquinolin-4-yl)butane-1,4-diamine [compound 4]”, the IC50 in data set [4] is 70 ± 20 nM. In addition, the “hemolytic activity (in words)” value in data set [1] is given as “not hemolytic”.
On to `CC[C@H](C)[C@H](NC(=O)[C@H](CCCCN)NC(=O)[C@H](CCCCN)NC(=O)[C@H](C)NC(=O)[C@H](CC(C)C)NC(=O)[C@H](C)NC(=O)[C@H](C)NC(=O)[C@H](CC(C)C)NC(=O)[C@H](C)NC(=O)[C@H](CCCCN)NC(=O)[C@H](CC(C)C)NC(=O)[C@H](CC(N)=O)NC(=O)[C@@H](NC(=O)[C@H](CCCCN)NC(=O)CNC(=O)[C@H](CC(C)C)NC(=O)[C@H](CC(C)C)NC(=O)[C@H](Cc1ccc(O)cc1)NC(=O)CNC(=O)[C@H](C)N)[C@@H](C)CC)C(=O)N[C@@H](CC(C)C)C(N)=O` [TP10], for which the concentration for half-maximal inhibition (IC50) is 5.53 µM and 5.5 µM in data set [7]; 1900 ± 500 nM in data set [4]. The figures for the hemolysis at 1 h, 10 µM in data set [5] and in data set [6] were 3.7 ± 0.1% and 3.4 ± 0.2%, respectively. Further, the “hemolytic activity (in words)” value in data set [1] is “only slightly hemolytic”.
As to `CC[C@H](C)[C@H](NC(=O)[C@H](CCCCN)NC(=O)[C@H](CCCCN)NC(=O)[C@H](C)NC(=O)[C@H](CC(C)C)NC(=O)[C@H](C)NC(=O)[C@H](C)NC(=O)[C@H](CC(C)C)NC(=O)[C@H](C)NC(=O)[C@H](CCCCN)NC(=O)[C@H](CC(C)C)NC(=O)[C@H](CC(N)=O)NC(=O)[C@@H](NC(=O)[C@H](CCCCN)NC(=O)CNC(=O)[C@H](CC(C)C)NC(=O)[C@H](CC(C)C)NC(=O)[C@H](Cc1ccc(O)cc1)NC(=O)CNC(=O)[C@H](C)NC(=O)[C@@H](N)Cc1cn(CCCCCC(=O)NCCCCNc2ccnc3cc(Cl)ccc23)nn1)[C@@H](C)CC)C(=O)N[C@@H](CC(C)C)C(N)=O` [compound 11], the IC50 in data set [4] was 1200 ± 200 nM. Moreover, the hemolysis at 1 h, 10 µM in data set [5] was 23 ± 1%; in data set [6] it was 10.7 ± 0.1%.
With `CC[C@H](C)[C@H](NC(=O)[C@H](CCCCN)NC(=O)[C@H](CCCCN)NC(=O)[C@H](C)NC(=O)[C@H](CC(C)C)NC(=O)[C@H](C)NC(=O)[C@H](C)NC(=O)[C@H](CC(C)C)NC(=O)[C@H](C)NC(=O)[C@H](CCCCN)NC(=O)[C@H](CC(C)C)NC(=O)[C@H](CC(N)=O)NC(=O)[C@@H](NC(=O)[C@H](CCCCN)NC(=O)CNC(=O)[C@H](CC(C)C)NC(=O)[C@H](CC(C)C)NC(=O)[C@H](Cc1ccc(O)cc1)NC(=O)CNC(=O)[C@H](C)N)[C@@H](C)CC)C(=O)N[C@@H](CC(C)C)C(=O)N[C@@H](CSSC[C@H](N)C(=O)NCCCCNc1ccnc2cc(Cl)ccc12)C(N)=O` [compound 14], the IC50 in data set [4] worked out at 2300 ± 400 nM. In addition, the hemolysis at 1 h, 10 µM in data set [5] came to 18.2 ± 0.8%; in data set [6] it was 7 ± 1%.
